In PMC10037499, “High-Throughput Screen Reveals the Structure–Activity Relationship of the Antimicrobial Lasso Peptide Ubonodin” (ACS Central Science, 2023):
Where a SMILES comes first, the peptide text is derived from it.

Tested on: E. coli MC1061
Assay: Spot dilution assay of E. coli producing the ubonodin variant from pUboABC
Format: cell-based
Conditions: variant in pUboABC backbone in E. coli MC1061, induction with 100 μM IPTG, ten-fold serial dilutions, biological duplicates
Method in brief: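 E. coli MC1061 carrying the plasmids was grown at 37 °C in LB with 100 μg/mL ampicillin to OD600 0.3, then induced with 100 μM IPTG. Samples taken before induction and at later timepoints were PBS-washed, spotted as ten-fold dilutions on ampicillin/0.2% glucose LB plates, and imaged after 16 h at 37 °C.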

CC[C@H](C)[C@@H]1NC(=O)[C@H](CO)NC(=O)CNC(=O)[C@H](CC(=O)O)NC(=O)CNC(=O)CNC(=O)CC[C@@H](C(=O)N[C@@H](Cc2ccc(O)cc2)C(=O)N[C@@H](Cc2ccccc2)C(=O)N[C@@H](CC(N)=O)C(=O)N[C@@H](CCCNC(=N)N)C(=O)N2CCC[C@H]2C(=O)N[C@@H](CCSC)C(=O)N[C@@H](Cc2c[nH]cn2)C(=O)N[C@H](C(=O)N[C@@H](Cc2c[nH]cn2)C(=O)N[C@@H](CC(=O)O)C(=O)N[C@@H](Cc2c[nH]c3ccccc23)C(=O)N[C@@H](CCC(N)=O)C(=O)N[C@H](C(=O)N[C@@H](CCSC)C(=O)N[C@@H](CC(=O)O)C(=O)N[C@@H](CO)C(=O)NCC(=O)N[C@@H](Cc2ccc(O)cc2)C(=O)N[C@@H](Cc2ccc(O)cc2)C(=O)NCC(=O)O)[C@@H](C)CC)[C@@H](C)CC)NC(=O)[C@H](C)NC1=O [WT, ubonodin] (HELM PEPTIDE1{G.G.D.G.S.I.A.E.Y.F.N.R.P.M.H.I.H.D.W.Q.I.M.D.S.G.Y.Y.G}$PEPTIDE1,PEPTIDE1,1:R1-8:R3$$$V2.0; C-terminus assumed)
Inhibits Growth: Yes
